Starred links: 1 amine or outer side, 2 acyl side, 3 side chain; linkers in the order of their positions; H or OH if unused. Positions of bridges follow the written chain, without caps; N, C: chain ends. Non-standard residues stand in square brackets, D forms with d. Residues, ends and D or L forms follow the SMILES beside them. ξ: configuration not given here. ξαMeNle(6-ylidene) = CC(CCCC=[*:3])(N[*:1])C(=O)[*:2]; X1 = CC(CCCCCCC=[*:3])(N[*:1])C(=O)[*:2]
Tests used:
Format in all cases: cell-based
[1] = tested on: U266, lymphoblast (myeloma); test: MTT viability assay, U266; conditions: 24-72 h, Table 7, read-out: IC50 values in μM for S09
Protocol: U266, lymphoblast (myeloma), ATCC® TIB196™
(§1) All cell lines were cultured in incubator at 37° C. in RPMI-1640 (Sigma R8758) medium with 10% of fetal bovine serum inactivated (FBS) and 2 mM glutamine (Sigma G7513). During the amplification step cells were centrifuged and transferred into the culturing medium. Cells were counted in a Neubauer chamber after labelling with Tripan-Blue.
(§2) Cells were seeded at a density of 10000 cells/well in 100 μl of medium in 96 well plates. After 24 h, the compounds to be tested were added to calculate the dose/response curve at the starting concentration of 100 μM with serial dilutions (1:1). Controls are the untreated cells. Each experiment was performed in triplicate.
(§3) Cells were incubated with the peptidomimetic compound (S09) at the indicated concentrations during 24-72 h in incubator under CO2 atmosphere at 37° C. Then, cell viability was measured by means of MTT (3-(4,5-dimethylthiazol-2-yl)-2,5-diphenyltetrazolium bromide) assay. Stock solution of MTT (475989 Calbiochem) was 5 mg/ml in PBS. […] Absorbance at 570 nm was finally measured. […]
(§4) Data analysis was performed calculating the percentage of cell viability normalized vs. the values of negative control, which was considered equal to 100%. The dose/response curve was fitted through the sigmoidal equation dose-response (variable slope) and the IC50 values were calculated as follow: […]

[2] = tested on: OPM-2, lymphoblast (myeloma); test: MTT viability assay, OPM-2; conditions: OPM2, 24-72 h, Table 7, read-out: IC50 values in μM for S09
Protocol: OPM-2, lymphoblast (myeloma), DSMZ No. ACC50
as §1, §2, §3, §4

[3] = tested on: BJ, fibroblast (normal skin); test: MTT viability assay, BJ; conditions: incubation 24-72 h, Table 3
Protocol: BJ, fibroblast (normal skin), ATCC® CRL-2522™
Cell lines A549, MCF-7 and RAMOS were cultured in incubator under CO2 (6%) at 37° C. in DMEM high glucose (Dulbecco's Modified Eagle Solution, Gibco-BRL 31966-21) medium with 10% fetal bovine serum inactivated (FBS) (Gibco-BRL 10106-169). Cell lines HL-60 and MM.1S were cultured in incubator at 37° C. in RPMI-1640 (Sigma R8758) medium with 10% of fetal bovine serum inactivated (FBS) and 2 mM glutamine (Sigma G7513). Cell lines BJ were cultured in incubator under CO2 (6%) at 37° C. in Eagle's Minimum Essential Medium (Sigma, M-2279) with 10% fetal bovine serum inactivated (FBS) (Gibco-BRL 10106-169).
During the amplification step and the assays adherent cells were rinsed with DPBS (Dulbecco's Phosphate Buffered Saline, Sigma D1283) three times and afterward treated for 5 minutes with trypsin ([…]) (Gibco-BRL, 15400054) in solution of DPBS at 37° C., and, once detached, transferred in the culturing medium. […] Cells were counted in a Neubauer chamber after labelling with Tripan-Blue. […]
as §3, with “compounds” for “peptidomimetic compound (S09)”, “assay.” for “assay. Stock solution of MTT (475989 Calbiochem) was 5 mg/ml in PBS.”

[4] = tested on: NCI-H929, lymphoblast (myeloma); test: MTT viability assay, NCI-H929; conditions: 24-72 h, Table 7, read-out: IC50 values in μM for S09
Protocol: NCI-H929, lymphoblast (myeloma), ATCC® CRL-9068™
as §1, §2, §3, §4

[5] = tested on: MM144, lymphoblast (myeloma); test: MTT viability assay, MM144; conditions: 24-72 h, Table 7, read-out: IC50 values in μM for S09
Protocol: MM144, lymphoblast (myeloma), University of Salamanca
as §1, §2, §3, §4

## CC[C@H](C)[C@H](NC(=O)[C@H](Cc1ccc(O)cc1)NC(=O)[C@H](C)NC(=O)C1(C)CCCC=CCCCCCCC(C)(NC(=O)[C@H](CCCCN)NC(=O)[C@@H]2CCCN2C(=O)[C@H](C)N)C(=O)N[C@@H](C(C)C)C(=O)N[C@@H]([C@@H](C)CC)C(=O)N[C@@H](CC(C)C)C(=O)N[C@@H](CCCCN)C(=O)N[C@@H](CCCCN)C(=O)N[C@@H](C)C(=O)N1)C(=O)N[C@@H](CC(C)C)C(=O)N[C@@H](CO)C(=O)O (some centres unmarked) [S09, APKXVILKKAXAYILS—OH] (H-APK[X1]VILKKA[ξαMeNle(6-ylidene)]AYILS-OH; staple 4-11; N-terminus assumed)
[1]
  IC50: 7.5 µM
[2]
  IC50: 4.8 µM
[3]
  IC50: 47 ± 0.2 µM
[4]
  IC50: 3.6 µM
[5]
  IC50: 6.8 µM

— patent US20200261534A1, “NEW TREATMENTS OF MULTIPLE MYELOMA” (priority 2017, published 2020)
